Assay results taken from patent US20190000789A1, “COMPOSITION AND METHOD FOR TREATING INFECTIONS CAUSED BY VANCOMYCIN-RESISTANT INFECTIOUS AGENTS IN A SUBJECT” (priority 2015, published 2019).
Read-outs that look alike come from different tables or passages of the source.

Columns and labels:
[1] = test system: S. coelicolor M145; experiment: MIC of vancomycin on MM agar plates with added D-Ala or L-Ala; format: cell-based, Streptomyces coelicolor; settings: for MIC: Streptomyces coelicolor
Experimental: The naturally vancomycin-resistant model organism S. coelicolor M145 was used as the initial test system. The strain was grown on solid minimal medium (MM) agar plates with increasing amounts of D-Ala and vancomycin. D-Ala was thereby added in concentrations of 5, 10 and 50 mM and the effect on the MIC of vancomycin assessed. As a first control, L-Ala was added and, as a second control, no amino acids were added. […] This was not altered when the culture media were supplemented with up to 50 mg/ml L-Ala (Table 1 and FIG. 6).
(§1) Escherichia coli strains JM109 (Sambrook et al., 1989) and ET12567 (Kieser et al., 2000) were used for routine cloning procedures and for extracting non-methylated DNA, respectively. Cells of E. coli were grown in Luria-Berani broth (LB) at 37° C. Streptomyces coelicolor A3(2) M145 was the parent of all mutants described in this work. All media and routine Streptomyces techniques were carried out as described (Kieser et al., 2000). SFM (soy flour mannitol) agar plates were used for propagating S. coelicolor strains and to prepare spore suspensions. For liquid-grown cultures, S. coelicolor mycelia were grown in normal minimal media with phosphate (NMMP) supplemented with 1% (w/v) mannitol as the sole carbon source. The MIC of vancomycin against S. coelicolor M145 and its mutant derivatives were determined by growth on minimal media (MM) agar plates supplemented with 1% mannitol as the sole carbon source, and 0, 2, 4, 8, 16, 32, 64, 128, 256 or 512 μg/ml vancomycin, in combination with 0, 1, 5, 10 or 50 mM of D-Ala or L-Ala. The vanX deletion mutants have been tested with 1, 5, 10, 50 and 100 μM D-Ala and L-Ala.

[2] = test system: S. coelicolor LAG2 (ddl suppressor mutant); experiment: as above; format: cell-based, Streptomyces coelicolor; settings: Streptomyces coelicolor
Experimental: VanS is the sensory kinase of a two-component system formed with VanR, and it has been shown previously that certain mutations in vanS will constitutively upregulate the vancomycin resistance cluster, explaining the viability of strain LAG2 in the absence of vancomycin.
as §1

[3] = test system: vanA-positive Enterococcus faecium clinical isolate vanA10; experiment: MIC of vancomycin by serial dilution in 96-well plates with or without D-Ala; format: cell-based; settings: for MIC: Enterococcus faecium
Experimental: (§2) Having established the important role of D-Ala in enhancing the efficacy of vancomycin against vancomycin-resistant S. coelicolor cells, next, its effect on the resistance of clinical isolates of Enterococcus faecium, which were vanA-positive strains, was assessed. MIC values were calculated by testing a serial dilution of vancomycin in the presence or absence of D-Ala in triplicate (Table 3).
(§3) The MIC was determined by measurement of the OD600 or by visual assessment, following the Clinical Laboratory and Standards Institute (CLSI) guidelines. […] This value compares to intermediate instead of total resistance. The strains were serially diluted in a 96-well plate and growth was assayed at OD600. The steps down refer to CSLI guidelines for clinical MIC measurements.
(§4) Five vanA-positive Enterococcus faecium strains were collected in 2011 and 2014 from patients in the Erasmus University Medical Centre, Rotterdam, The Netherlands. Presence of the vanA gene was confirmed by real-time PCR with the LIGHTCYCLER® 480 instrument (Roche Diagnostics, Almere, The Netherlands) with the primers vanA F1 and vanA R1, and the vanA probe. The resistance profile of these isolates was determined as MIC values using the VITEK II (BioMerieux) system AST-P586. To determine the MIC of vancomycin against E. faecium, cells were grown overnight on Trypticase Soy Agar (TSA) blood agar plates (Becton Dickinson, Breda, The Netherlands) and suspended in 0.9% NaCl until OD600 0.5 (±0.05). Of this suspension, 10 μl was dispensed into wells of sterile flat-bottom 96-well polystyrene tissue culture plates (Greiner Bio-One, Alphen aan Den Rijn, The Netherlands) containing serial dilutions of vancomycin in 190 μl of a 1:1 mixture of Fetal Bovine Serum (FBS) (Gibco, Bleiswijk, The Netherlands) and Iscove's Modified Dulbecco's Medium (IMDM) (without phenolred, Gibco, Bleiswijk, The Netherlands), and in the presence or absence of 50 mM D-alanine (Alfa Aesar, Ward Hill, Mass., USA). Plates were incubated for 18-24 hours at 37° C. and MIC values determined visually following the CLSI guidelines, or by spectrophotometer at 600 nm.

[4] = test system: vanA-positive Enterococcus faecium clinical isolate vanA1; experiment: as above; format: cell-based; settings: for MIC: Enterococcus faecium
Experimental: as §2, §3, §4

[5] = test system: vanA-positive Enterococcus faecium clinical isolate vanA2; experiment: as above; format: cell-based; settings: for MIC: Enterococcus faecium
Experimental: as §2, §3, §4

[6] = test system: vanA-positive Enterococcus faecium clinical isolate vanA3; experiment: as above; format: cell-based; settings: for MIC: Enterococcus faecium
Experimental: as §2, §3, §4

[7] = test system: vanA-positive Enterococcus faecium clinical isolate vanA4; experiment: as above; format: cell-based; settings: for MIC: Enterococcus faecium
Experimental: as §2, §3, §4

[8] = test system: clinical isolates of vanA-positive Enterococcus faecium; experiment: MIC of vancomycin by serial dilution, isolates not named individually; format: cell-based; settings: for MIC: Enterococcus faecium
Experimental: as §2, §3, §4

With `CN[C@H](CC(C)C)C(=O)N[C@H]1C(=O)N[C@@H](CC(N)=O)C(=O)N[C@H]2C(=O)N[C@H]3C(=O)N[C@H](C(=O)N[C@H](C(=O)O)c4cc(O)cc(O)c4-c4cc3ccc4O)[C@H](O)c3ccc(c(Cl)c3)Oc3cc2cc(c3O[C@@H]2O[C@H](CO)[C@@H](O)[C@H](O)[C@H]2O[C@H]2C[C@](C)(N)[C@H](O)[C@H](C)O2)Oc2ccc(cc2Cl)[C@H]1O` [vancomycin] the “reduction of the MIC of vancomycin” value ([1]; M145, 10 mM D-Ala) was 4 fold, the “reduction of the MIC of vancomycin” value ([1]; M145, 50 mM D-Ala) was 32 fold and the MIC ([1]; M145, read-out: MIC of vancomycin, M145, 0 mM D-Ala) was 128 µg/mL. It also gave an MIC ([1]; M145, read-out: MIC of vancomycin, M145, 5 mM D-Ala) of 32 µg/mL, an MIC ([1]; M145, read-out: MIC of vancomycin, M145, 10 mM D-Ala) of 32 µg/mL and an MIC ([1]; M145, read-out: MIC of vancomycin, M145, 50 mM D-Ala) of 4 µg/mL. It also gave an MIC ([2]; LAG2, 0 mM D-Ala) of 128 µg/mL, an MIC ([2]; LAG2, 5 mM D-Ala) of 64 µg/mL and an MIC ([2]; LAG2, 10 mM D-Ala) of 32 µg/mL. It also gave an MIC ([2]; LAG2, 50 mM D-Ala) of 4 µg/mL, an MIC ([3]; vanA10, 50 mM D-Ala, read-out: MIC with 50 mM D-Ala) of 16 µg/mL and an MIC ([3]; vanA10, read-out: MIC without D-Ala) of 2050 µg/mL. For the same compound, the “reduction of MIC” value ([3]; vanA10, 50 mM D-Ala, approximation based on 2-fold dilution steps) was ~128, the MIC ([4]; vanA1, 50 mM D-Ala, read-out: MIC with 50 mM D-Ala) was 256 µg/mL and the MIC ([4]; vanA1, read-out: MIC without D-Ala) was 4100 µg/mL. The “reduction of MIC” value ([4]; vanA1, 50 mM D-Ala, approximation based on 2-fold dilution steps) was ~16, the MIC ([5]; vanA2, 50 mM D-Ala, read-out: MIC with 50 mM D-Ala) was 256 µg/mL and the MIC ([5]; vanA2, read-out: MIC without D-Ala) was 4100 µg/mL. For the same compound, the “reduction of MIC” value ([5]; vanA2, 50 mM D-Ala, approximation based on 2-fold dilution steps) was ~16, the MIC ([6]; vanA3, 50 mM D-Ala, read-out: MIC with 50 mM D-Ala) was 128 µg/mL and the MIC ([6]; vanA3, read-out: MIC without D-Ala) was 4100 µg/mL. The “reduction of MIC” value ([6]; vanA3, 50 mM D-Ala, approximation based on 2-fold dilution steps) was ~32, the MIC ([7]; vanA4, 50 mM D-Ala, read-out: MIC with 50 mM D-Ala) was 128 µg/mL and the MIC ([7]; vanA4, read-out: MIC without D-Ala) was 4100 µg/mL. For the same compound, the “reduction of MIC” value ([7]; vanA4, 50 mM D-Ala, approximation based on 2-fold dilution steps) was ~32, the MIC ([8]; worst cases, 50 mM D-Ala) was 256 µg/mL and the MIC ([8]; worst cases, without D-Ala) was 4100 µg/mL. For the same compound, the “reduction of MIC of vancomycin in dilution steps” value ([8]; all clinical isolates, 50 mM D-Ala) was 4-7 dilution steps and the MIC of vancomycin ([8]; worst cases, 50 mM D-Ala) was 128 µg/mL.
